Results published in ChEMBL document CHEMBL1201862, “PubChem BioAssay data set” (2004).
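Five compound concentrations were applied to cells in 96-well plates for 48 hours; endpoints were derived by simple linear interpolation of the resulting dose-response curve. GI50: concentration for 50% inhibition of growth.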 The source made the active and inactive calls. No stated cut-off is given here; in the data, active = GI50 up to about 1.1 µM and inactive = higher.

How the values were obtained:
Assay in all cases: growth of human tumour cells (NCI), 48 h
ACHN = system: ACHN
DLD-1 = system: DLD-1
M19-MEL = system: M19-MEL
A498 = system: A498
RXF 631 = system: RXF 631
HOP-18 = system: HOP-18
Hs-578T = system: Hs-578T
T47D = system: T47D

Measured: GI50

O=C1OC2(OC2c2ccc(Cl)cc2)c2ccccc21 (stereo not drawn)
inactive: ACHN 94.2 µM | DLD-1 > 100 µM | M19-MEL > 100 µM

O=c1oc2ccccc2n1P(=O)(n1c(=O)oc2ccccc21)n1c(=O)oc2ccccc21
inactive: A498 > 100 µM | ACHN > 100 µM | DLD-1 > 100 µM | M19-MEL 60.3 µM | RXF 631 > 100 µM

O=C1C(Cl)N(c2ccccc2)C1c1c[nH]c2ccccc12 (stereo not drawn)
inactive: M19-MEL > 100 µM

O=C(O)c1cc2sc(C(=O)O)cc2s1
inactive: A498 > 100 µM | DLD-1 > 100 µM | M19-MEL > 100 µM

NC1(C(=O)O)CCCC1 [CYCLOLEUCINE]
inactive: DLD-1 > 625 µM | HOP-18 > 625 µM | M19-MEL > 625 µM

Nc1n[nH]c2nc3ccccc3nc12 [QUINOXALINE1]
inactive: A498 33.7 µM | ACHN 36 µM | Hs-578T 39 µM

O=[N+]([O-])C(=C/c1ccccc1)/C(=C\c1ccccc1)[N+](=O)[O-]
inactive: ACHN 16.9 µM | Hs-578T 56.2 µM | T47D 23.8 µM

COc1nc2ccc(CNc3ccc(C(=O)NC(CCC(=O)O)C(=O)O)cc3)cc2nc1OC (stereo not drawn)
inactive: A498 > 100 µM | ACHN > 100 µM | Hs-578T > 100 µM | T47D > 100 µM

C/C(=C1/N=C(c2cc([N+](=O)[O-])ccc2Cl)N(c2ccc(Br)cc2)C1=O)c1cc2ccccc2oc1=O
inactive: A498 20.7 µM | ACHN 6 µM | DLD-1 22.1 µM | HOP-18 > 100 µM | M19-MEL 5.89 µM

CC(=O)OCC1OC(n2c(-c3ccc(C)cc3)cc(-c3ccco3)c(C#N)c2=S)C(OC(C)=O)C(OC(C)=O)C1OC(C)=O (stereo not drawn)
inactive: A498 61.7 µM | ACHN 75.5 µM | Hs-578T 27.9 µM | T47D 20.6 µM

COc1cc2c(cc1OC)-c1cc3ccccc3c(=O)n1CC2
inactive: ACHN 37.5 µM | Hs-578T 11.4 µM | T47D 21.8 µM

C=CCP(=O)(CC=C)C(Cl)Cl
inactive: ACHN > 100 µM | Hs-578T > 100 µM | T47D > 100 µM

COc1ccc2c(c1)CC1Cc3ccccc3CCN1C2 (stereo not drawn)
inactive: ACHN 64 µM | Hs-578T 41.2 µM | T47D 35.2 µM

C=C(C(=O)C(=O)Oc1ccc(Cl)cc1)C(=O)c1ccc(C)cc1
inactive: A498 > 100 µM | ACHN 91.4 µM | DLD-1 28.4 µM | HOP-18 > 100 µM | M19-MEL 17.7 µM | RXF 631 46.2 µM

Cc1c2cnccc2c(C)c2c1c1ccccc1n2CCCCCCNCc1ccccc1
inactive: A498 2.11 µM | M19-MEL 2.09 µM
active: DLD-1 0.879 µM | HOP-18 0.547 µM
